Test results reported in publication PMC5841205, “Pharmacological targeting of apelin impairs glioblastoma growth” (Brain, 2017).
Positions of bridges follow the written chain, without caps; N, C: chain ends. Residues, ends and D or L forms follow the SMILES beside them.

What was measured:
[1] = tested on: tumour-bearing mice; assay: Cardiac frequency, blood pressure and glycaemia, MM54; format: in vivo, mouse; conditions: MM54 2 mg/kg bi-weekly for 4 weeks
Protocol: (§1) To test potential toxic effects of MM54 and MM193 in vivo, mice were administered 2 mg/kg of MM54, MM193 or vehicle bi-weekly for 4 weeks. At sacrifice, blood was taken for analysis and the heart, kidney, aorta and liver removed, weighed and fixed for histological analysis. For the glycaemic study, animals were starved for 6 h prior to sacrifice.
Figure 6 Pharmacological inhibition of APLNR by MM54 reduces xenograft progression. (A) Tumour-bearing mice were fasted for 6 h and the effect of either MM54 (2 mg/kg) or DMSO vehicle treatment on glycaemia measured via blood analysis. (B) Cardiac frequency and blood pressure were measured in random-fed tumour-bearing animals. (C) Nude mice were implanted with GSC#9 (5 × 10^5 cells) in each flank and treated with either DMSO vehicle or the APLNR antagonist (MM54, 2 mg/kg) bi-weekly from Week 4. Tumour volume was measured weekly until Week 11. n = 10/group. (D and E) Cryosections from GSC tumours were assessed for PECAM (red), Ki67 (green), NESTIN (green), SOX2 (green) and apoptosis (TUNEL). (F) Tumour sections were assessed for pS9-GSK3β staining in DMSO vehicle- and MM54-treated animals. Scale bars = 40 µm. […] All panels are representative of n = 3, unless specified.

[2] = tested on: panel of normal human and primary glioblastoma cell lines; assay: Cell viability (UptiBlue), cell line panel; format: cell-based; conditions: MM54 2, 20 and 100 μM, 3 days; cardiomyocytes, HaCAT, CaCo2, hCMEC/D3, Jurkat, SH-SY5Y, SVGp12, glioblastoma lines
Protocol: Cell viability in response to MM54 was tested using the UptiBlue reagent (Interchim), a fluorometric/colorimetric growth indicator based on the detection of metabolic activity. Briefly, cells were seeded at a density of 2 × 10^3 per well, UptiBlue added at a concentration of 10% v/v and cells maintained at 37°C 5% CO2 until analysis. Absorbance was measured at Day 5 following treatment at 570 and 600 nm on a FLUOStar OPTIMA (BMG Labtech) plate reader, and the percentage of cell viability calculated according to the manufacturer’s instructions.
Figure 5 Pharmacological inhibition of APLNR by MM54 impairs the in vitro expansion of temozolomide-resistant GSCs. (A) Cell viability following treatment with DMSO, MM54 (2, 20 and 100 μM) or temozolomide (TMZ, 50 μM) was measured using UptiBlue in different cell types for 3 days. […] (B and C) Cell viability following treatment with DMSO or TMZ (100 μM) was measured using UptiBlue in GSCs #1, #4, #9, and #12 for 3 days. […] (D) GSC#1 viability was assessed following combined treatment with MM54 (0.2–20 μM) and TMZ (constant ratios TMZ:MM54 2.5:1, 5:1, and 10:1) in NS and human brain endothelial cell-conditioned medium (EC-CM) conditions. (E and F) Tumoursphere per field of view (fov) and ALDH activity were assessed in response to MM54 (0.2–100 μM) or TMZ (10–100 μM) treatment at Day 5. […]

[3] = Brain pharmacokinetics after intraperitoneal administration; format: in vivo, mouse
Protocol: (§2) B. MM54 compound was solubilized in water and administered intraperitoneally (IP) at the dose of 3.6 mg/kg to healthy mice.
(§3) Mice (3/group) were sacrificed at 10 min, 30 min, 60 min, 2h, 4h, 6h, 8h and 24h post-injection. Plasma and brains were collected and further processed for LC-MS/MS analysis. B/P index is 0.24. AUC is area under the curve. n.d. stands for ‘not able to be

[4] = Plasma pharmacokinetics after intraperitoneal administration; format: in vivo, mouse
Protocol: as §2, §3

[5] = tested on: heart, kidney and liver of mice; assay: Histological and biochemical analysis of heart, kidney and liver; format: in vivo, mouse
Protocol: as §1, with “sacrifice. […]” for “sacrifice.”
In order to test potential toxic effects of MM54 in vivo, C57Bl/6J female mice were administered 2 mg/kg of MM54
or DMSO vehicle, bi-weekly for 4 weeks. At sacrifice, blood was taken for analysis and the heart, kidney, aorta and
liver removed, weighed and fixed for histological analysis (as shown in Figure S4). n=4 mice/group, 63 mean±SEM.

[6] = healthy animals, intraperitoneal
[7] = healthy mice, IP 3.6 mg/kg in water, 3/group, LC-MS/MS
[8] = mouse, plasma, healthy mice, IP 3.6 mg/kg in water, 3/group, LC-MS/MS

## CC(C)C[C@@H]1NC(=O)[C@H](CCCNC(=N)N)NC(=O)[C@@H]2CCCN2C(=O)[C@H](CCCNC(=N)N)NC(=O)[C@@H](NC(=O)[C@H](Cc2c[nH]cn2)NC(=O)[C@H](CCCCN)NC(=O)[C@@H]2CSSC[C@H](N)C(=O)N[C@@H](CCCNC(=N)N)C(=O)N3CCC[C@H]3C(=O)N[C@@H](CCCNC(=N)N)C(=O)N[C@@H](CC(C)C)C(=O)N2)CSSC[C@@H](C(=O)O)NC1=O [MM54, cyclo(1–6)CRPRLC-KH-cyclo(9–14)CRPRLC] (H-CRPRLCKHCRPRLC-OH; disulfide 1-6, 9-14)
[1]
  cardiac frequency, blood pressure and glycaemic index: did not induce alterations to these parameters
[2]
  toxicity (viability) in cell line panel: no overtly toxic effects on any of the cell lines tested
[3]; [6]
  detection in brain: detected in the plasma and the brain
[3]; [7]
  Cmax (µM), brain: 0.14 µM
  Cmax (µg.ml-1), brain: 0.26 µg/mL
  Time Cmax, brain: 10 min
[3]; mouse, healthy mice, IP 3.6 mg/kg in water, brain vs plasma, read-out: B/P index
  Kp: 0.24
[4]; [6]
  detection in plasma: detected in the plasma and the brain
[4]; [7]
  Cmax (µM), plasma: 0.6 µM
[4]; [8]
  AUC: 1470 ng·h/mL
  half-life: 2.37 ± 0.367 h
[4]; mouse, plasma, healthy mice, IP 3.6 mg/kg in water, 3/group, LC-MS/MS, read-out: Cmax (µg.ml-1), plasma
  Cmax: 1.1 µg/mL
[4]; mouse, plasma, healthy mice, IP 3.6 mg/kg in water, 3/group, LC-MS/MS, read-out: Time Cmax, plasma (converted)
  Tmax: 0.167 h
[5]; MM54 2 mg/kg bi-weekly for 4 weeks vs vehicle
  histological and biochemical analysis of heart, kidney and liver: revealed no differences between MM54-treated animals and vehicle controls
[5]; present dose (2 mg/kg), repeated administration
  overt adverse effects in vivo: does not exert any overt adverse effects in vivo
